Reference: patent publication US5055459A, “Selective elimination of malignant cells from bone marrow by bis (acyloxy) propylphosphoramidates” (Board of Regents, The University of Texas, priority 1989, dated 1991)
pIC50: −log10 of the molar value. In brackets after ≈: the same amount, converted by molar mass. Entries after “also recorded” stand apart in the source; their conditions may differ.

What was measured:
[1] = test system: L1210 lymphatic leukemia cells; assay: cells; format: cell-based, murine; settings: Mus musculus, L1210, 72 h, read-out: ED50
[2] = background; cited from earlier work
KBM-3 = assay: Clonogenic assay, drug in agar, prolonged exposure (Table 8, FIG. 11); format: cell-based; settings: Homo sapiens, drug added to agar plates
KBM-3/DOX = assay: cells; format: cell-based, human; settings: Homo sapiens
KBM-3/AMSA = assay: cells; format: cell-based, human; settings: Homo sapiens
HL-60 = assay: Clonogenic assay, drug in agar, prolonged exposure (Table 8, FIG. 11); format: cell-based; settings: Homo sapiens, drug added to agar plates
HL-60/AMSA = assay: cells; format: cell-based; settings: Homo sapiens
[3] = Long-term suspension culture: GM-CFC regrowth on autologous irradiated adherent cell layers (Table 9); format: cell-based, human; settings: human, bone marrow gm-cfc; concentration used in long-term suspension cultures; read-out: detectable GM-CFC abolished
Procedure: (§1) A modification of previously reported techniques was used (Gartner and Kaplan, 1980; Greenberg et al., 1981; Potter et al., 1981; Coulombel et al., 1983). Briefly, 1×10^7 mononuclear bone marrow cells were suspended in 10 ml IMDM supplemented with 12.5% horse serum, 12.5% FCS and 5×10^-6 M hydrocortisone succinate (HyC) (Abbott Laboratories, N. Chicago, Ill.) in 25 cm^2 tissue culture flasks (Corning Glass Works, Corning N.Y.). After 8 to 10 days an adherent fibroblast (feeder) layer, supplying a hemopoietic microenvironment, was established. The non-adherent cells were washed off, and the feeder layer was irradiated with 3.0 Gy gamma-irradiation at a dose rate of 3.3 Gy per min. A second bone marrow sample was obtained from the same donor, and low-density mononuclear cells were isolated as above. The cells were exposed for 60 min at 37° C. to increasing drug concentrations. After two washings, the cells were suspended in 10 ml IMDM with 10% FCS and 5×10^-6 M HyC, and then added to the previously established feeder layers. All cultures were established in duplicate, and all flasks were incubated for five weeks at 37° C. in an atmosphere of 5% CO2 and 12% O2 balanced with N2 to 100%. Twice weekly, 85% of the medium was replaced with fresh medium. Immediately after drug exposure, and at weekly intervals up to 5 weeks, one ml of the cell suspension was removed and monitored for the presence of GM-CFC using the soft agar assay as described above. The total number of surviving GM-CFC formed from untreated cells served as a quality control of the culture system and as a reference (positive controls) for calculating the surviving GM-CFC fraction in cultures of drug-treated cells Flasks containing irradiated stromal cell layers alone were subjected to the same twice-weekly media changes and were monitored weekly for possible regrowth of GM-CFC (negative controls). After five weeks, all non-adherent cells were removed from the flasks. The feeder layers were carefully rinsed twice with 10 ml of PBS, then treated with 0.2% trypsin in EDTA solution (GIBCO Laboratories, Grand Island, N.Y.) for 2-3 min at 37° C. After washing, the resulting single cell suspensions were assayed for GM-CFC.
(§2) ^a Average values ± S.D. for three experiments. In each experiment
(§3) the cultures were conducted in duplicates.
(§4) ^b At the end of the culture period. For details see Materials and […]

[4] = test system: GM-CFC from normal human bone marrow; assay: as above; format: cell-based; settings: for GM-CFC × 10^-3 per adherent cell layer: end of culture period; for GM-CFC × 10^-3 per adherent cell layer / GM-CFC × 10^-3 per culture: average ± S.D.
Procedure: as §1, §2, §3, §4

[5] = test system: KBM-3 leukemic CFC and GM-CFC in bone marrow; assay: cells; format: cell-based, human
[6] = Stability of frozen stock solution; format: physicochemical; settings: frozen at -80° C., stock solution 265 uM
Procedure: In the initial experiments, acetaldoifosphamide (1-C) was weighed and dissolved in Dulbecco's phosphate-buffered saline (pH 7.4) (GIBCO, Grand Island, N.Y.) supplemented with Ca++ (10 mg %) and glucose (100 mg %) (enriched PBS) immediately prior to each experiment. […] In subsequent experiments a frozen stock solution was used; aliquots were thawed as necessary immediately prior to use.

[7] = test system: mononuclear cells from normal bone marrow (GM-CFC)
[8] = test system: human myeloid cell line KBM-3
[9] = test system: GM-CFC from normal human bone marrow
[10] = test system: mononuclear cells from normal bone marrow (GM-CFC); assay: cells; settings: Homo sapiens, 1 h
[11] = test system: human myeloid cell line KBM-3; assay: cells
in vitro = settings: human, bone marrow gm-cfc
[12] = Stability in phosphate-buffered saline

## O=P1(N(CCCl)CCCl)NCCCO1 (stereo not drawn) [Cyclophosphamide, cyclophosphamide, reference compound]
[1]
  IC50: 20 µg/mL (≈ 76.6 µM)
[2]
  therapeutic index, in words: higher therapeutic index than must other mustard-type alkylating agents

## CC(=O)OC(CCOP(=O)(NCCCl)NCCCl)OC(C)=O [acetaldoifosphamide]
KBM-3
  pIC50: 6.70
KBM-3/DOX
  pIC50: 6.80
KBM-3/AMSA
  pIC50: 6.17
HL-60
  pIC50: 6.52
HL-60/AMSA
  pIC50: 6.25
[3]
  cytotoxicity at 1 h: > 99%
[4]; 26.4 uM
  GM-CFC × 10^-3 per adherent cell layer: 0.22 ± 0.09 GM-CFC × 10^-3 per adherent ce
[4]; 26.4 uM, week 0
  GM-CFC × 10^-3 per culture: 2.8 ± 1.5 GM-CFC × 10^-3 per culture
[4]; 26.4 uM, week 1
  GM-CFC × 10^-3 per culture: 15.0 ± 1.8 GM-CFC × 10^-3 per culture
[4]; 26.4 uM, week 2
  GM-CFC × 10^-3 per culture: 18.2 ± 4.6 GM-CFC × 10^-3 per culture
[4]; 26.4 uM, week 3
  GM-CFC × 10^-3 per culture: 2.9 ± 1.1 GM-CFC × 10^-3 per culture
[4]; 26.4 uM, week 4
  GM-CFC × 10^-3 per culture: 0.8 ± 0.4 GM-CFC × 10^-3 per culture
[4]; 26.4 uM, week 5
  GM-CFC × 10^-3 per culture: 0.09 ± 0.03 GM-CFC × 10^-3 per culture
[4]; 33 uM, end of five weeks
  GM-CFC content of adherent cell layer vs controls: contained more GM-CFC than the controls
[4]; 33.0 uM
  GM-CFC × 10^-3 per adherent cell layer: 0.12 ± 0.04 GM-CFC × 10^-3 per adherent ce
[4]; 33.0 uM, week 0
  GM-CFC × 10^-3 per culture: 0.1 ± 0.04 GM-CFC × 10^-3 per culture
[4]; 33.0 uM, week 1
  GM-CFC × 10^-3 per culture: 7.7 ± 1.3 GM-CFC × 10^-3 per culture
[4]; 33.0 uM, week 2
  GM-CFC × 10^-3 per culture: 18.6 ± 2.5 GM-CFC × 10^-3 per culture
[4]; 33.0 uM, week 3
  GM-CFC × 10^-3 per culture: 2.6 ± 0.3 GM-CFC × 10^-3 per culture
[4]; 33.0 uM, week 4
  GM-CFC × 10^-3 per culture: 1.1 ± 0.3 GM-CFC × 10^-3 per culture
[4]; 33.0 uM, week 5
  GM-CFC × 10^-3 per culture: 0.13 ± 0.06 GM-CFC × 10^-3 per culture
[4]; 39.6 uM, end of five weeks
  GM-CFC content of adherent cell layer vs controls: had the same GM-CFC content as the controls
[4]; 39.6 uM
  GM-CFC × 10^-3 per adherent cell layer: 0.06 ± 0.03 GM-CFC × 10^-3 per adherent ce
[4]; 39.6 uM, week 0
  GM-CFC × 10^-3 per culture: 0.3 ± 0.2 GM-CFC × 10^-3 per culture
[4]; 39.6 uM, week 1
  GM-CFC × 10^-3 per culture: 16.8 ± 7.6 GM-CFC × 10^-3 per culture
[4]; 39.6 uM, week 2
  GM-CFC × 10^-3 per culture: 18.5 ± 6.5 GM-CFC × 10^-3 per culture
[4]; 39.6 uM, week 3
  GM-CFC × 10^-3 per culture: 3.9 ± 1.3 GM-CFC × 10^-3 per culture
[4]; 39.6 uM, week 4
  GM-CFC × 10^-3 per culture: 0.8 ± 0.3 GM-CFC × 10^-3 per culture
[4]; 39.6 uM, week 5
  GM-CFC × 10^-3 per culture: 0.10 ± 0.02 GM-CFC × 10^-3 per culture
[4]; 53 uM, end of five weeks
  number of GM-CFC in non-adherent and adherent population: subnormal number of GM-CFC
[4]; 53.0 uM
  GM-CFC × 10^-3 per adherent cell layer: 0.03 ± 0.01 GM-CFC × 10^-3 per adherent ce
[4]; 53.0 uM, week 0
  GM-CFC × 10^-3 per culture: 0 GM-CFC × 10^-3 per culture
[4]; 53.0 uM, week 1
  GM-CFC × 10^-3 per culture: 0.2 ± 0.0 GM-CFC × 10^-3 per culture
[4]; 53.0 uM, week 2
  GM-CFC × 10^-3 per culture: 1.2 ± 0.2 GM-CFC × 10^-3 per culture
[4]; 53.0 uM, week 3
  GM-CFC × 10^-3 per culture: 0.3 ± 0.1 GM-CFC × 10^-3 per culture
[4]; 53.0 uM, week 4
  GM-CFC × 10^-3 per culture: 0.06 ± 0.02 GM-CFC × 10^-3 per culture
[4]; 53.0 uM, week 5
  GM-CFC × 10^-3 per culture: 0.006 ± 0.002 GM-CFC × 10^-3 per culture
[4]; Homo sapiens, 1 h, GM-CFC
  IC99: 33 µM
  IC100: 53 µM
[4]; after bone marrow exposure
  time to recovery of GM-CFC to control level: ≤ 2 weeks
[4]; normal bone marrow, concentration abolishing more than 99% of GM-CFC
  GM-CFC recovery to control levels: two to three weeks
[5]
  regrowth / elimination of leukemic cells: leukemic cell proliferation was not evident; also recorded: no regrowth of leukemic CFC was observed; also recorded: the leukemia was completely eliminated with full recovery of GM-CFC production
[5]; Homo sapiens, 1 h, read-out: reduction of leukemic cells
  log reduction at 39.6 µM: > 5
[6]
  retention of full cytotoxic activity on storage: retained full cytotoxic activity for more than four months
[7]
  effect of erythrocytes on activity: decreases the activity
[7]; human
  cytotoxicity relative to 4-HC on a molar basis: 8-10 times
[8]
  activity against normal marrow GM-CFC versus leukemic myeloid CFC (KBM-3): more active against normal marrow GM-CFC than against leukemic myeloid CFC
  dependence of cytotoxicity on cell concentration: a 20-fold increase in cell concentration results in only a two-fold decrease in cytotoxicity
  increase in clonogenic KBM-3 cell survival: 2 fold
[9]
  GM-CFC doubling time: 6 to 12 h
  GM-CFC recovery kinetics / progenitor sparing, in words: has a sparing effect on very immature hemopoietic stem cells
  delay in proliferation of the GM-CFC pool: 24 h
  detectable GM-CFC after highest concentration: initially had no detectable GM-CFC, however after day two rapid GM-CFC proliferation was apparent
[10]
  pIC50: 4.90 to 4.94
[11]
  IC90: ~1300 nM
In vitro
  cytotoxicity at 1 h: 95 to 100%
[12]; pbs, pH 7.4
  half-life: > 80 h
[12]; saline solution
  stability in saline solution: stable in saline solution
